Molecular target: T1, NKCCl (Rattus norvegicus, UniProt E9PTX9)
T1 construct: gramicidin perforated patch clamped CA1 pyramidal neuron in an acute hippocampal slice from a P5 rat; from tissue; host or cells: acute hippocampal slices of P3-P6 male Sprague-Dawley rats; CA1 pyramidal neurons
T1 sequence (E9PTX9 1-1203): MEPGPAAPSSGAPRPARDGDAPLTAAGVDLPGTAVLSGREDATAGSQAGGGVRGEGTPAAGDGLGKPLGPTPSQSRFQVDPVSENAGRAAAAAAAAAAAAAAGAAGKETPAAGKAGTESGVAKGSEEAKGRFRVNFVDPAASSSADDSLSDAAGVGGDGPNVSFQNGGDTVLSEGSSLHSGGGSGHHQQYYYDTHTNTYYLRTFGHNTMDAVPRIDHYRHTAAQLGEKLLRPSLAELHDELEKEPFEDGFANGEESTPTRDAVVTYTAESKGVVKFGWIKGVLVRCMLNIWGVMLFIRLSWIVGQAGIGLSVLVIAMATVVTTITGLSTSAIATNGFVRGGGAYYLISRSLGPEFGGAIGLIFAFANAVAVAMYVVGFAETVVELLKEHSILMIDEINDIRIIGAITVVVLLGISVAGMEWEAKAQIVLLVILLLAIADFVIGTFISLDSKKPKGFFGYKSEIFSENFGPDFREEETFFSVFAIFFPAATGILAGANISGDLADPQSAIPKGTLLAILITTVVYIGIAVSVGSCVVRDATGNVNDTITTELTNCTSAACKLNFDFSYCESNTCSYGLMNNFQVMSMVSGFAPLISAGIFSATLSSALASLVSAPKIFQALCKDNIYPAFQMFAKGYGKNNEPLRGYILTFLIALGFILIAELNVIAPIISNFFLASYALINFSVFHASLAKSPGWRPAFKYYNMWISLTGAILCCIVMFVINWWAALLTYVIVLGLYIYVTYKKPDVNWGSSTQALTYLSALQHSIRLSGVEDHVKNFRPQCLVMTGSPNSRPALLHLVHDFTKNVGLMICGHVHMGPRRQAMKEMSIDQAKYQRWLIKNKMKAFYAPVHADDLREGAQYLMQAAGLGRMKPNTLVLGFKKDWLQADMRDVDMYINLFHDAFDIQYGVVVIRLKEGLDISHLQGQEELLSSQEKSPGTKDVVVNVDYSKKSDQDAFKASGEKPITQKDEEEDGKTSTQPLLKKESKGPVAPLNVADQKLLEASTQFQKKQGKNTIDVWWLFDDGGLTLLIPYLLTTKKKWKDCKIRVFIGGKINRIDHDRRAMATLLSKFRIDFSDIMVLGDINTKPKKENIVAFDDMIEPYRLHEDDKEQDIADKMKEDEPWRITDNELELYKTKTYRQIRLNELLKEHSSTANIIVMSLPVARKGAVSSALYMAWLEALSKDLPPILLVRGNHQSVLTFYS
Assay: Reversal potential of stimulus-evoked GABAA-PSCs in immature CA3 pyramidal cells
Assay type: cell-based
Experimental: Cell cultures, such as pyramidal cells, can be used to examine the effects of a pharmaceutical composition of the present invention on GABAA receptor activation. In one exemplary method, selective inhibition of NKCCl by a pharmaceutical composition of the present invention, bumetanide, was tested to examine the relationship between chloride accumulation in neurons, GABAA receptor activation and NKCC1. Specifically, the reversal potential of electrical stimulus evoked GABAA-receptor mediated post-synaptic currents (GABAA-PSCS) in immature P4-P6 CA3 pyramidal cells of the hippocampus was examined in the presence or absence of bumetanide. Electrical stimulation of the stratum radiatum (7 V, 30 us duration) evoked in control conditions a synaptic response that reversed at −42.4±1.7 mV (n=6) and was close to the reversal potential of spontaneous GABAA-PSCS (−46.1±0.7 mV; n=6, p=0.07). Examples of stimulus evoked postsynaptic currents at different holding potentials for individual pyramidal cell and corresponded current-voltage (I-V) relationship are shown in FIG. 1A. […] In presence of bumetanide, stimulus evoked GABAA-PSCs reversed at −46.1±1.9 mV (n=6, p=0.17). […] This in vitro system can be used to test any of the pharmaceutical compositions of the present invention for modulation of GABAA receptor activation. […]

shift in reversal potential of GABAA-PSCs (bumetanide 10 μM application): negative shift
reversal potential of stimulus evoked GABAA-PSCs (bumetanide 10 μM, P4-P6 CA3 pyramidal cells, n=6, p=0.17, control −42.4±1.7 mV): −46.1±1.9 mV
Compound: CCCCNc1cc(C(=O)O)cc(S(N)(=O)=O)c1Oc1ccccc1 [bumetanide, 3-(aminosulfonyl)-5-(butylamino)-4-phenoxybenzoic acid]

From patent publication US20070043034A1, “Chlorine Ion Uptake Modulators and Uses Thereof” (priority 2005, published 2007)
